Results: ChEMBL document CHEMBL1148587, “Imidazo[1,2-a]pyrimidines as functionally selective and orally bioavailable GABA(A)alpha2/alpha3 binding site agonists for the treatment of anxiety disorders” (J Med Chem, 2006)
pKi: −log10 of the molar value. The source made the active and inactive calls. The rule behind the calls is not given here.

Key:
[1] = target: T1, GABA-A receptor; alpha-3/beta-3/gamma-2 (Homo sapiens) (UniProt P18507+P28472+P34903); assay: Efficacy against human recombinant GABAA alpha3 in combination with beta-3-gamma-2 expressed in L(tk-) cells by whole cell patch clamp method; assay type: functional, cell-based
[2] = target: T2, GABA-A receptor; alpha-5/beta-3/gamma-2 (Homo sapiens, UniProt P18507+P28472+P31644); assay: Displacement of [3H]Ro-151788 from human recombinant GABAA alpha5 in combination with beta3gamma2 expressed in L(tk-) cells; assay type: cell-based
T2 sequence (P18507 whole entry): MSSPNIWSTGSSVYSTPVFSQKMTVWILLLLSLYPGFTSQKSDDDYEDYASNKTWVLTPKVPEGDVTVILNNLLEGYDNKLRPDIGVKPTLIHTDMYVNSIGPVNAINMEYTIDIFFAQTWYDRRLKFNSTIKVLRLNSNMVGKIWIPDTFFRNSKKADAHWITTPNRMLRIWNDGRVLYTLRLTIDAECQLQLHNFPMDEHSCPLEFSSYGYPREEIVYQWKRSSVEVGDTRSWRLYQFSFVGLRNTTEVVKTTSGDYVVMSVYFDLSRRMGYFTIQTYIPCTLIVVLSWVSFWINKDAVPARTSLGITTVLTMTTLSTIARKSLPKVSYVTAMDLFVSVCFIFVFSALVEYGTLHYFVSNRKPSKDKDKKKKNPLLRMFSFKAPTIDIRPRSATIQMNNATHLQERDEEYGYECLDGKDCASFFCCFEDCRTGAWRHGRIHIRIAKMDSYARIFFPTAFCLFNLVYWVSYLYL
T2 sequence (P28472 whole entry): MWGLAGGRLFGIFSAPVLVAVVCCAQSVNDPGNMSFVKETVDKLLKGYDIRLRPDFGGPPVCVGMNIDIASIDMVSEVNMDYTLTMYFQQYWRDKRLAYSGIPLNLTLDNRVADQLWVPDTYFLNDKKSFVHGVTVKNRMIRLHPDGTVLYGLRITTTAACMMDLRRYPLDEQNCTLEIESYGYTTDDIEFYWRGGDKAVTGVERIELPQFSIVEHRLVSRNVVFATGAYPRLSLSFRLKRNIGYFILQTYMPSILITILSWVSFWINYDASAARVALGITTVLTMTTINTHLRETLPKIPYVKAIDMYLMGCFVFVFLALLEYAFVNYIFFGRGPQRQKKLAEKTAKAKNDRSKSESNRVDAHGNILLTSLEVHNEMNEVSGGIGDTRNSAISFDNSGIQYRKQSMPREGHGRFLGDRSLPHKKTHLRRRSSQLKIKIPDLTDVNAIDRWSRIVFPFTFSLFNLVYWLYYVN
T2 sequence (P31644 whole entry): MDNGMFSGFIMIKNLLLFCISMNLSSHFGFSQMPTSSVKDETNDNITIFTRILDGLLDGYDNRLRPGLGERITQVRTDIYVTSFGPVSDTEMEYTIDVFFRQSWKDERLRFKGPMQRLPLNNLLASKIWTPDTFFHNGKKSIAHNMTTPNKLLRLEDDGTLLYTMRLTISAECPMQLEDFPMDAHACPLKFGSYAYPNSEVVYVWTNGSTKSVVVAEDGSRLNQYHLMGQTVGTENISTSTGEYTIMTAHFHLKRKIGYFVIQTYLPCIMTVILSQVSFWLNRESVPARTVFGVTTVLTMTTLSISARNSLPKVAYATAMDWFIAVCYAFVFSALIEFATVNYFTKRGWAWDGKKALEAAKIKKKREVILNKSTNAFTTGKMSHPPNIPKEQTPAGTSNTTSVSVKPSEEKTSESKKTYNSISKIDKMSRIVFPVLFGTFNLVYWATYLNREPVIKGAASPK

[3] = target: T3, GABA-A receptor; alpha-1/beta-3/gamma-2 (Homo sapiens) (UniProt P14867+P18507+P28472); assay: Efficacy against human recombinant GABAA alpha-1 in combination with beta3gamma2 expressed in L(tk-) cells by whole cell patch clamp method; assay type: functional, cell-based
[4] = target: T4, GABA-A receptor; alpha-1/beta-3/gamma-2 (Homo sapiens, UniProt P14867+P18507+P28472); assay: Displacement of [3H]-Ro15-1788 from human recombinant GABAA alpha1 in combination with beta-3-gamma-2 expressed in L(tk-) cells; assay type: cell-based
T4 sequence (P14867 whole entry): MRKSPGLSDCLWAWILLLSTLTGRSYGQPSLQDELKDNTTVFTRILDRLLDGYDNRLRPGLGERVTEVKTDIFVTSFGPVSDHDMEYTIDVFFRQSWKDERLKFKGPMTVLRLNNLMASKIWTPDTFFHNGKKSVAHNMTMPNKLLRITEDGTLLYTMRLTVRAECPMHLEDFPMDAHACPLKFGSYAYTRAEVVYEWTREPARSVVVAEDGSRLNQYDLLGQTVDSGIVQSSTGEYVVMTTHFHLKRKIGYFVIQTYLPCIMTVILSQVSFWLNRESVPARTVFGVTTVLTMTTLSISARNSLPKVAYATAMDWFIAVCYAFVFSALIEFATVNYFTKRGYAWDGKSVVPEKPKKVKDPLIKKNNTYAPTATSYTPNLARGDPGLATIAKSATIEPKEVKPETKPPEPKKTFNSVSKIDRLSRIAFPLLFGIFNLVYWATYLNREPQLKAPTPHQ
T4 sequence (P18507 whole entry): T2 sequence (P18507 whole entry)
T4 sequence (P28472 whole entry): T2 sequence (P28472 whole entry)

[5] = target: GABA-A receptor; alpha-5/beta-3/gamma-2 (Homo sapiens) (UniProt P18507+P28472+P31644); assay: Efficacy against human recombinant GABAA alpha5 in combination with beta3gamma2 expressed in L(tk-) cells by whole cell patch clamp method; assay type: functional, cell-based
[6] = target: T5, GABA-A receptor; alpha-3/beta-3/gamma-2 (Homo sapiens, UniProt P18507+P28472+P34903); assay: Displacement of [3H]Ro-151788 from human recombinant GABAA alpha3 in combination with beta3gamma2 expressed in L(tk-) cells; assay type: cell-based
T5 sequence (P18507 whole entry): T2 sequence (P18507 whole entry)
T5 sequence (P28472 whole entry): T2 sequence (P28472 whole entry)
T5 sequence (P34903 whole entry): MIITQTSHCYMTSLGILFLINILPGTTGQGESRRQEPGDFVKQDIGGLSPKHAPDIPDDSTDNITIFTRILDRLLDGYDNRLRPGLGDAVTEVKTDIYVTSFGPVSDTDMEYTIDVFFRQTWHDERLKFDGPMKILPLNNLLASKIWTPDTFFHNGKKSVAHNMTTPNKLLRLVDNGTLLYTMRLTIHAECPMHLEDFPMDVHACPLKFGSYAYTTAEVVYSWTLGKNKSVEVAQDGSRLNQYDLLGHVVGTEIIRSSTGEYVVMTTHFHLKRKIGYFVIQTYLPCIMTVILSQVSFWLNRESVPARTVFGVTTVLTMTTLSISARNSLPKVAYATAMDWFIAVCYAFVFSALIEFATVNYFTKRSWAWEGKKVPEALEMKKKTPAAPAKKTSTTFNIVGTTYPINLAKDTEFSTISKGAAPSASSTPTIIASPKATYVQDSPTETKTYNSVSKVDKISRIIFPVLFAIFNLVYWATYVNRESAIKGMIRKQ

[7] = target: T6, GABA-A receptor; alpha-2/beta-3/gamma-2 (Homo sapiens, UniProt P18507+P28472+P47869); assay: Displacement of [3H]-Ro15-1788 from human recombinant GABAA alpha2 in combination with beta3gamma2 expressed in L(tk-) cells; assay type: cell-based
T6 sequence (P18507 whole entry): T2 sequence (P18507 whole entry)
T6 sequence (P28472 whole entry): T2 sequence (P28472 whole entry)
T6 sequence (P47869 whole entry): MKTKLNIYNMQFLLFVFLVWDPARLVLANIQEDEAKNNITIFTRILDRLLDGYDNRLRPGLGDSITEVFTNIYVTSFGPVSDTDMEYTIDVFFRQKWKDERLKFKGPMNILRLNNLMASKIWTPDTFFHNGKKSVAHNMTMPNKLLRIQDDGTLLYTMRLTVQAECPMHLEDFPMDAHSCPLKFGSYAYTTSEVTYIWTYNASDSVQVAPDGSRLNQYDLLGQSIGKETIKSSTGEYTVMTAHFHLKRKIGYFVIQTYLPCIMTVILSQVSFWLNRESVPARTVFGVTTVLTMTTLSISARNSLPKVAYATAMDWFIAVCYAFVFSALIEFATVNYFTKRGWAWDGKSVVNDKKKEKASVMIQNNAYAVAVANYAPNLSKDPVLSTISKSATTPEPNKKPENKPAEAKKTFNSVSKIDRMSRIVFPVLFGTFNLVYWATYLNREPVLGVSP

[8] = Oral bioavailability in rat; assay type: ADME, organism-based; details: in vivo
[9] = Plasma clearance in rat; assay type: ADME, organism-based
[10] = target: T3, GABA-A receptor; alpha-1/beta-3/gamma-2 (Homo sapiens); assay: Efficacy against human recombinant GABAA alpha1 in combination with beta3gamma2 expressed in L(tk-) cells by 36Cl ion flux modulation; assay type: functional, cell-based
[11] = target: T1, GABA-A receptor; alpha-3/beta-3/gamma-2 (Homo sapiens); assay: Efficacy against human recombinant GABAA alpha3 in combination with beta-3-gamma-2 expressed in L(tk-) cells by 36Cl ion flux modulation; assay type: functional, cell-based
[12] = Plasma clearance in dog; assay type: ADME, organism-based, Canis lupus familiaris
[13] = Oral bioavailability in dog; assay type: ADME, organism-based, Canis lupus familiaris; details: in vivo
[14] = system: Rattus norvegicus; assay: Activity in rat elevated plus maze assay at 5 mg/kg, ip; assay type: functional, organism-based; set-up: dose 5 mg/kg

Row | SMILES | Efficacy [1] [%] | pKi [2] | Efficacy [3] [%] | pKi [4] | Efficacy [5] [%] | pKi [6] | pKi [7] | bioavailability [8] [%] | clearance [9] [mL/min/kg] | Efficacy [10] [%] | Efficacy [11] [%] | clearance [12] [mL/min/kg] | bioavailability [13] [%] | Activity [14]
1 | N#Cc1ccccc1-c1cccc(-c2cnc3nc(C(F)(F)F)ccn23)c1F | 43 | 9.03 | 2 | 8.57 | 18 | 8.59 |  |  |  |  |  |  |  | 
2 | Cn1ncnc1COc1nn2c(-c3cc(F)ccc3F)nnc2cc1C(C)(C)C | 43 | 8.64 | 2 | 9.10 | 39 | 9.15 | 9.15 |  |  |  |  |  |  | 
3 | Cc1ccn2c(-c3cccc(-c4ccccc4C#N)c3)cnc2c1 | 57 | 8.92 | -10 | 8.35 | -14.6 | 8.44 |  | 2 | 44 |  |  |  |  | 
4 | N#Cc1c(F)cccc1-c1cc(-c2cnc3nc(C(F)(F)F)ccn23)ccc1F |  | 8.55 |  | 8.34 |  | 8.12 |  |  |  | 31 | 56 |  |  | 
5 | CCO/N=C(\C)c1ccc2c(c1)ncn2-c1cccc(-c2cccnc2)c1 | 127 | 8.80 | 42 | 8.82 | 26 | 8.04 | 7.88 |  |  |  |  |  |  | 
6 | N#Cc1ccccc1-c1cccc(-c2cnc3nc(C(F)(F)F)ccn23)c1 | 69 | 9.68 | 20 | 9.18 |  | 9.48 |  |  |  |  |  |  |  | 
7 | Cn1cnc(COc2nn3c(-c4ccccc4)nnc3c3c2C2CCC3CC2)n1 | 55 |  | 34 |  |  |  |  |  |  |  |  |  |  | 
8 | N#Cc1ccc(F)cc1-c1cc(-c2cnc3nc(C(F)(F)F)ccn23)ccc1F |  | 9.59 | 34 | 9.19 |  | 9.21 |  |  |  |  |  |  |  | 
9 | CC(C)(O)c1ccn2c(-c3ccc(F)c(-c4ccc(F)cc4C#N)c3)cnc2n1 |  | 10.00 |  | 8.57 |  | 8.89 | 8.48 |  |  | 45 | 45 |  |  | 
10 | c1ccc(-c2nnc3c4c(c(OCc5ccccn5)nn23)C2CCC4CC2)cc1 | 45.6 | 9.00 | 32 | 7.25 |  | 8.00 | 7.66 |  |  |  |  |  |  | 
11 | N#Cc1ccccc1-c1cc(F)cc(-c2cnc3nc(C(F)(F)F)ccn23)c1 |  | 8.80 |  | 8.28 |  | 7.85 |  |  |  | 4 | 18 |  |  | 
12 | Cc1ccn2c(-c3cccc(-c4ccccc4C#N)c3)cnc2n1 | 81 | 9.92 | 7 | 9.41 | 1 | 9.43 | 9.11 | 42 | 13 |  |  | 41 | < 5 | 
13 | Cc1ccn2c(-c3cccc(-c4cccnc4)c3)cnc2c1 |  |  |  |  |  | 7.80 |  |  |  | -15 | 9 |  |  | 
14 | CCn1ncnc1COc1nn2c(-c3ccccc3F)nnc2cc1C(C)(C)C [MK-0777] |  | 9.70 |  | 9.59 |  | 9.52 | 9.52 |  |  |  |  |  |  | 
15 | CNC1=Nc2ccc(Cl)cc2C(c2ccccc2)=[N+]([O-])C1 |  |  |  |  |  |  |  |  |  |  |  |  |  | Active
16 | N#Cc1ccccc1-c1cc(-c2cnc3nc(C(F)(F)F)ccn23)ccc1F | 43 | 9.70 | 12.4 | 9.30 | 14 | 9.47 | 9.28 |  |  |  |  |  |  | 
17 | N#Cc1cccc(F)c1-c1cc(-c2cnc3nc(C(F)(F)F)ccn23)ccc1F | 33 | 9.30 | 8 | 9.06 |  | 9.42 |  |  |  |  |  |  |  | 
